This note sets out measurements from paper PMC8286619 (BMC Pharmacology & Toxicology, 2021).

pKd: −log10 of the molar value.

In the assay the target is T1, xanthine oxidase (XO) (Bos taurus, UniProt P80457).
T1 construct: gene XDH
In words: biolayer interferometry, biotinylated XO on SA sensor (also activates the purified enzyme, EC50 […]). The class given is binding. For orientation: In BLI a coated tip is dipped into the sample, and binding shifts an interference pattern.

T1 sequence (P80457 2-1332): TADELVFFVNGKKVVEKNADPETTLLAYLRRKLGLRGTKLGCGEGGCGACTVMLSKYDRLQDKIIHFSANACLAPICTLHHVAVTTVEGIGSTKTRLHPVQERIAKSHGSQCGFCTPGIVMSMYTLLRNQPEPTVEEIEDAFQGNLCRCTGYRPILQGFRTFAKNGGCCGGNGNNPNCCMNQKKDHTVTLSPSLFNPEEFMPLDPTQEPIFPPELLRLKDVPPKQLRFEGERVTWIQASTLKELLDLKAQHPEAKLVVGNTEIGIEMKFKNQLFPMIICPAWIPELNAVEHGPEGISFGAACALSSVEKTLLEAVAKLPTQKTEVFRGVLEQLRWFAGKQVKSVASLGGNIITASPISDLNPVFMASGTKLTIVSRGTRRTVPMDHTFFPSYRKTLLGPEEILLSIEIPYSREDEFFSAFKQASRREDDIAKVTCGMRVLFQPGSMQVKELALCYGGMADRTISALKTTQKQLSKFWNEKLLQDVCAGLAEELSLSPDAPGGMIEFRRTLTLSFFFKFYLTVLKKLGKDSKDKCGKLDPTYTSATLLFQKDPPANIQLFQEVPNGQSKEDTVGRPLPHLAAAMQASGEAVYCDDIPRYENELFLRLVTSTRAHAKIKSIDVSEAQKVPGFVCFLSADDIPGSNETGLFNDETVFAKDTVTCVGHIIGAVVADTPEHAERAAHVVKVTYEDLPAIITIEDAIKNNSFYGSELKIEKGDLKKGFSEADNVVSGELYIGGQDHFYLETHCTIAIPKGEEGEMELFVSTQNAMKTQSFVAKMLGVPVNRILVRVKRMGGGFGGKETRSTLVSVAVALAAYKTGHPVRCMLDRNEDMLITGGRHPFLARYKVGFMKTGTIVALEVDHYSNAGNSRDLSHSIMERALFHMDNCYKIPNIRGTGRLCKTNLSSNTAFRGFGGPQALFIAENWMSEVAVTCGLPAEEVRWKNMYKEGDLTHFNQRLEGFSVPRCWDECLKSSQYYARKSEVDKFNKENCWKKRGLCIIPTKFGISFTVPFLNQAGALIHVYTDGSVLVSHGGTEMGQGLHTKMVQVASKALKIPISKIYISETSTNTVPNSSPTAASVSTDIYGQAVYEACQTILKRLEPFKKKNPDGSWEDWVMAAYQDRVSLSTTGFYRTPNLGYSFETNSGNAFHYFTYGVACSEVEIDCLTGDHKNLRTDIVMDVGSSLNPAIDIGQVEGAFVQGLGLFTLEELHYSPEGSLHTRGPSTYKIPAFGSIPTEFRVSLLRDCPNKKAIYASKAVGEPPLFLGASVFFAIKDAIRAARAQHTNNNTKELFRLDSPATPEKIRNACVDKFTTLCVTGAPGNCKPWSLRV

One may read the pKd as the Kd on a negative log10 scale, so that one unit is a factor of ten. Lower therefore signals a high Kd. `CC1=CC(=O)c2c(O)cccc2C1=O` [PLB, Plumbagin] showed a negative-log Kd (pKd) of 6.30.
